These results are taken from article PMC7293822 (ACS chemical biology, 2018).

Numbered stars: 1 amine (or outer) side, 2 acyl side, 3 side chain; on linkers, the order of the positions; unused ones are H or OH. Ends that are not written are not given here. Peptide text beside a SMILES is read from it. * marks the point of attachment. Glutaryl = O=C(CCCC(=O)[*:2])[*:1]; AMC = Cc1cc(=O)oc2cc(N*)ccc12

One series concerns the target T1, bovine trypsin (Bos taurus, UniProt P00760).
T1 sequence (P00760 24-246): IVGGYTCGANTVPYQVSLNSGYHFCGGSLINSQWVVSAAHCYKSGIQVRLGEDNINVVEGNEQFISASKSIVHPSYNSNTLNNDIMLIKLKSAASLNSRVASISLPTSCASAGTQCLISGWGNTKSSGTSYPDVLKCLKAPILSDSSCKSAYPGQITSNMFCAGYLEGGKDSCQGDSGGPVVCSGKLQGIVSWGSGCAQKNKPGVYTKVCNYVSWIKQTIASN
The series can be described thus: Fluorescent protease assay with AMC substrates, trypsin. Format: biochemical. Conditions: 100 nM bovine trypsin, 50 μM substrate, 30 min, D-PBS, 2 mM DTT.

The next series concerns the target human aminopeptidase B (Homo sapiens, UniProt Q9H4A4). In words: Fluorescent protease assay with AMC substrates, aminopeptidase B. Conditions: 2 nM human aminopeptidase B, 50 μM substrate, 30 min, D-PBS, 2 mM DTT. The class given is biochemical.
Series [1] relates to Pd_dinase. In words: Fluorescent protease assay with AMC substrates, Pd_dinase. The following applies: 8 nM Pd_dinase, 50 μM substrate, 30 min, D-PBS, 2 mM DTT. The class given is biochemical, Parabacteroidetes distasonis.
Series [2] concerns Pd_dinase. In words: Antimicrobial peptide digestion by Pd_dinase, LC-MS/MS. The class given is in vitro ADME, Parabacteroidetes distasonis.
Another series relates to Pseudomonas aeruginosa. The following applies: cited from earlier work.
The test system of the next series is Streptococcus pyogenes. The following applies: cited from earlier work.
For a further series, the system named is Staphylococcus aureus. The following applies: cited from earlier work.
The next series has as its system E. coli. The following applies: cited from earlier work.
In series [3] the test system is Pd_dinase. The series can be described thus: Pd_dinase. Conditions: Parabacteroidetes distasonis, up to 30 min.
The next series has as its system aminopeptidase B. In words: human aminopeptidase B. Conditions: up to 30 min.
Series [4] deals with Pd_dinase. The series can be described thus: 10 nM of Pd_dinase incubated with each antimicrobial peptide. Conditions: Parabacteroidetes distasonis, up to 1200 min.
The next series deals with trypsin. The series can be described thus: bovine trypsin. Conditions: up to 30 min.
In series [5] the test system is Pd_dinase. In words: Inhibition of Pd_dinase by peptide-AOMK inhibitors. Conditions: 50 μM inhibitor, 2 nM Pd_dinase, 50 μM substrate, activity monitored for 4 h. The class given is biochemical, Parabacteroidetes distasonis.

Sequence of human aminopeptidase B (Q9H4A4 whole entry): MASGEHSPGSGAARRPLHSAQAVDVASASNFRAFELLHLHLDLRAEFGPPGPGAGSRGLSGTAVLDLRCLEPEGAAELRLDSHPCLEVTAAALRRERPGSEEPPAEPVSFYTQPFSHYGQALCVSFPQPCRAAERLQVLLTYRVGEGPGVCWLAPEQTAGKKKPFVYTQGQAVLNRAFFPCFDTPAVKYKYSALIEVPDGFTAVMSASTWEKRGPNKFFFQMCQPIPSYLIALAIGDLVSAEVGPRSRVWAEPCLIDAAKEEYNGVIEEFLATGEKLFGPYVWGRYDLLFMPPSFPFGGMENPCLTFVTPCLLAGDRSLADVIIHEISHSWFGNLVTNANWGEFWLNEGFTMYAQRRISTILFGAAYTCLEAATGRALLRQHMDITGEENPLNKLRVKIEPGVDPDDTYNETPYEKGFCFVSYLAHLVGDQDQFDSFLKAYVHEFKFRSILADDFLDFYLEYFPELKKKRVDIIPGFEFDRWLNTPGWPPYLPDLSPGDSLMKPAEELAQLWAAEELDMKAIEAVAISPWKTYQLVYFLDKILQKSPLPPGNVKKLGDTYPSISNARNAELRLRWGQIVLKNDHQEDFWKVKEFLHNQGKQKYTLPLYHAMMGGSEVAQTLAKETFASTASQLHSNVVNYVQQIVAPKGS

For the compound `Cc1cc(=O)oc2cc(NC(=O)[C@@H](N)CCCN=C(N)N)ccc12` [Arg-AMC, NH2-arginine-AMC], the “cleavage of AMC substrate by trypsin” value on bovine trypsin was “failed to hydrolyze”. In addition, on human aminopeptidase B, the “cleavage of AMC substrate by aminopeptidase B” value is “only cleaved”. Further, in the series on Pd_dinase [1], the “cleavage of AMC substrate by Pd_dinase” value is listed as “does not cleave”.

As for `Cc1cc(=O)oc2cc(NC(=O)[C@H](CCCNC(=N)N)NC(=O)CN)ccc12` [Gly-Arg-AMC, NH2-Gly-Arg-AMC] (H-Gly-Arg-{AMC}), the “cleavage of AMC substrate by Pd_dinase” value in the series with Pd_dinase [1] is listed as “rapidly hydrolyzes”.

AIGGGLSSVGGGS [KAMP-13]: the metabolised at 20 h, 5 μM in the series on Pd_dinase [2] (Parabacteroidetes distasonis, isolated protease Pd dinase (10 nM)) came out at 15.5%.

As to GGLSSVGGGSSTIK [KAMP-14], the bactericidal activity entry with Pseudomonas aeruginosa, in the series with Streptococcus pyogenes, in the series on Staphylococcus aureus and with E. coli was “bactericidal” throughout. For the same compound, the “degradation by Pd_dinase” value with Pd_dinase [2] (10 nM Pd_dinase, 5 μM peptide, 5 to 1200 min, triplicate, LC-MS/MS) is recorded as “degraded into a 12-mer peptide”.

For the compound Glutaryl-Gly-Arg-{AMC}, the not cleaved entry is reported as “does not cleave Glt-Gly-Arg-AMC” in the series on Pd_dinase [3] and “aminopeptidase B only cleaved Arg-AMC” with aminopeptidase B.

On to “Glutaryl-Gly-Arg-{AMC} [Glt-Gly-Arg-AMC]”, for which, at bovine trypsin, the “rate of cleavage by trypsin relative to Gly-Arg-AMC” value is 80 fold. Further, the “cleavage of AMC substrate by Pd_dinase” value in the series with Pd_dinase [1] was “does not cleave”.

With H-AIGGGLSSVGGGS-OH, in the series with Pd_dinase [4], the cleaved bond entry was “Ile-G, minor” and the fragment found was 9-mer peptide.

Take H-Gly-Arg-{AMC}: the not cleaved result in the series on aminopeptidase B was “aminopeptidase B only cleaved Arg-AMC”.

For the compound NH2-arginine-AMC, the not cleaved entry was “does not cleave Arg-AMC” in the series on Pd_dinase [3] and “failed to hydrolyze Arg-AMC” in the series on trypsin.

As to “NH2-glycine-arginine-AOMK [Gly-Arg-AOMK]”, the “effect on Pd_dinase activity” value with Pd_dinase [5] is given as “completely inhibited”.
